Test results: patent publication US20100221304A1, “Bionanocomposite Materials and Methods For Producing and Using the Same” (The Regents of the University of Colorado, a body corporate, priority 2009, published 2010)

Assays:
SMC = SMC migration, in-growth and contraction in collagen-chitosan scaffolds; type: cell-based
Text: In addition, collagen-chitosan scaffolds have been developed as a structural support for the formation of a vascular media equivalent. In particular, the effects of cross-linking and PDGF-BB (with or without heparin or serum) on biomechanical properties, SMC migration, SMC contraction, and wound healing have been evaluated (FIG. 12). […] For example, it enhanced the strength and modulus while inhibited SMC in-growth and contraction. With a low cross-linking condition, the molecule effects of PDGF-BB, a SMC attractant, were studied with or without serum or heparin.

smooth muscle cell (SMC) = assay: SMC contraction and invasion in genipin-crosslinked collagen-chitosan-elastin (CCE) gel constructs; type: cell-based
Text: The vascular media, a layer of the blood vessel wall containing smooth muscle cell (SMC), is often the target functional tissue in the construction of biomimetic vascular grafts. It has a major contribution to mechanical properties and biological functions of vessels including contraction and healing. The present inventors have studied the effects of crosslinking and biomolecule conditions in the development of mechanically strong and stable, biologically functional constructs for vascular media equivalents. To this end, genipin was used to crosslink collagen-chitosan-elastin (CCE) constructs, and the effects of genipin concentration on the mechanical properties and SMC activity of CCE gel constructs were examined.
To enhance biological activities of cells on the genipin-treated CCE constructs, soluble molecule factors were incorporated with structural constructs and their effects on SMC activities were evaluated. These conditions include heparin, platelet-derived […] growth factor (PDGF), high-concentrated fetal bovine serum (h-FBS), mixture of heparin and PDGF and mixture of h-FBS and PDGF. […] The ingrowth of SMC in the vascular media equivalent also promoted wound healing process of the construct scaffold by showing the closure of the puncture hole (FIG. 14).

Row | Compound | SMC in-growth and contraction (SMC; collagen-chitosan scaffolds cross-linked using genipin) | SMC contraction or invasion in the gels (smooth muscle cell (SMC); genipin at a concentration of 5 mM or above) | SMC contraction and invasion in the CCE gels (smooth muscle cell (SMC); genipin crosslinking) | PDGF-induced cell migration and contraction (SMC; low cross-linking condition, PDGF-BB with or without serum or heparin) | PDGF-induced SMC invasion into the crosslinked constructs (smooth muscle cell (SMC))
1 | COC(=O)C1=CO[C@@H](O)[C@@H]2C(CO)=CC[C@H]12 [genipin] | inhibited | No SMC contraction or invasion was observed | significantly inhibited | – | –
2 | heparin | – | – | – | inhibited | inhibitory effects
